In patent publication US8591902B2, “Antibody binding to lysophosphatidylglucoside, and composition comprising the same” (Riken, priority 2010, dated 2013):

What was measured:
[1] = tested on: growth cone of an NGF-dependent neuron (TrkA neuron); assay: In vitro growth cone turning assay, NGF-supplemented medium; type: cell-based, chicken; details: for change in axon extension direction in response to concentration gradient: NGF-supplemented medium, TrkA neuron, lysophospholipid 10 μM in pipette, 45 minutes
Description: (§1) The method described in T. Tojima et al., Nat Neurosci 10, 58-66 (January, 2007) was somewhat modified and employed to perform a primary culture of isolated DRG sensory nerves. Specifically, a chicken embryo at HH St. 29 was separated from the eggshell and decapitated. The body was transferred to ice-cooled PBS. Organs were removed from the obtained body with forceps, and the spine was exposed by ventral laminectomy. DRGs were isolated from the thoracic or lumbosacral spinal cord, broken into pieces fine watchmaker's forceps, and transferred into an L15 medium on ice. The DRG obtained by the dissection was treated with trypsin at 37° C. for 20 minutes, followed by centrifugation at 100 g for 1 minute. A minimum amount of an L15 medium was added to the pellets thus obtained, and the cells were manually suspended (repeated manual trituration). The cell suspension was again centrifuged at 100 g for 1 minute, and the supernatant was removed. Subsequently, the pellets were resuspended in a Leibovitz's L15 medium supplemented with N-2 (manufactured by Invitrogen Corp.), 750 μg/ml of BSA (manufactured by GIBCO), and 25 ng/ml of NGF or 50 ng/ml of NT-3 (manufactured by Sigma-Aldrich Corporation). The cells were seeded on glass dishes precoated with mouse-derived laminin (manufactured by Invitrogen Corp.) at […] such that the cell count would be 10,000 per dish. The dishes were placed in a culturing environment of 5% CO2 at 37° C. for approximately 2 hours before used in a growth cone turning assay.
The in vitro growth cone turning assay was conducted according to the methods described in M. Lohof, M. Quillan, Y. Dan, M. M. Poo, J Neurosci 12, 1253-61 (April, 1992), J. Q. Zheng, M. M. Poo, J. A. Connor, Perspect Dev Neurobiol 4, 205-13 (1996), and Y. Xiang et al., Nat Neurosci 5, 843-8 (September, 2002), which were somewhat modified. Specifically, lysophosphatidylcholine (manufactured by Sigma-Aldrich Corporation) or Lyso-PtdGlc prepared by a method described later was diluted with a vehicle (1% (v/v) methanol/PBS) such that the concentration would be 10 μM. […]

[2] = tested on: growth cone of an NT-3-dependent neuron (TrkC neuron); assay: In vitro growth cone turning assay, NT-3-supplemented medium; type: cell-based, chicken; details: lysophospholipid 10 μM in pipette, 45 minutes
Description: as §1, with “The dishes were placed in a culturing environment of 5% CO2 at 37° C. for approximately 2 hours before used in a growth cone turning assay.” left out

| Compound | change in axon extension direction in response to concentration gradient [1] | change in axon extension direction in response to concentration gradient [2] | chemorepellent effect on growth cone turning ([1]; in the presence of 50 μg/ml anti-Lyso-PtdGlc antibody) |
| --- | --- | --- | --- |
| CCCCCCCCCCCCCCCCCC(=O)OCC(O)COP(=O)(O)O[C@@H]1OC(CO)[C@@H](O)C(O)C1O (some centres unmarked) [Lyso-PtdGlc, lysophosphatidylglucoside] | changed its extension direction | no significant change | – |
| Lysophosphatidic acid [LPA] | – | – | strong chemorepellent effect |
| Lysophosphatidylcholine [LPC] | no significant influence | no significant influence | – |
